Data taken from US6664284B2, “Stabilized carvedilol injection solution” (Roche Diagnostics GmbH, priority 1998, dated 2003).
≈ marks a conversion by molar mass, not a printed value.

What was measured:
physchem [1] = settings: aqueous with cosolvent or surfactant or cyclodextrin
[2] = Solubility of loop diuretics in the acidic to maximum neutral aqueous formulations; settings: acidic to neutral aqueous carvedilol injection solutions, aqueous with cosolvent or surfactant or cyclodextrin
lipid peroxidation = settings: reported by Yue et al.; cited from earlier work
physchem [3] = settings: pH 6.1, water

Cc1cccc(Nc2ccncc2S(=O)(=O)NC(=O)NC(C)C)c1 [Torasemide]
solubility (physchem [1]): 1 to 2 mg/mL (≈ 2870 to 5740 µM)

NS(=O)(=O)c1cc(-c2nnn[nH]2)c(NCc2cccs2)cc1Cl [azosemide]
solubility [2]: 1 to 3 mg/mL (≈ 2700 to 8090 µM)

COc1ccccc1OCCNCC(O)COc1cccc2[nH]c3ccccc3c12 (stereo not drawn) [carvedilol, 1-(9H-carbazol-4-yloxy)-3-[[2-(2-methoxyphenoxy)ethyl]amino]-2-propanol]
solubility of carvedilol in water (pH 6.1): about 0.2 mg/100 ml
pH value resulting from saturated solution in water (water): 6.1
antioxidative activity, lipid peroxidation (lipid peroxidation): inhibit lipid peroxidation
solubility (physchem [3]): ~0.002 mg/mL (≈ 4.92 µM)
